Experimental data published in patent US20260263624A1, “COMBINATION OF ANTIBODY-DRUG CONJUGATE AND CANCER THERAPY, AND USE THEREOF” (GENEQUANTUM HEALTHCARE (SUZHOU) CO., LTD., priority 2023, published 2026).

Experiments:
[1] = test system: breast cancer HER2 IHC 3+ PDX model (primary resistance to palbociclib); assay: In vivo efficacy of GQ01 with TKIs in human breast cancer PDX model, primary resistance to palbociclib (Example 2); set-up: species or system NCG mice; details: GQ01 5 mg/kg on day 0 and day 28; for TGI (%): day 49; for Tumor volume (mm^3), Mean ± SEM: end day (day 49)
Procedure: The model was derived from a patient with Stage III invasive breast cancer who developed metastases to lung and bone after surgery.
I. The tumor tissues of PDX model were extracted from the tumor-bearing mice and were transferred to culture medium, cut into small fragments, and inoculated subcutaneously in the right flank of SPF female NCG mice aged 6~8 weeks.
(§1) II. 30 days after inoculation, the tumor diameter was measured with a caliper and the tumor volume was calculated according to the formula V=0.5 a×b^2 (wherein a is the long diameter of the tumor and b is the short diameter of the tumor). […] Each group included 6 mice. The day of first administration was defined as day 0. […] The tumor volume of mice was measured twice a week.

[2] = test system: human breast cancer HER2 IHC 3+ PDX model (acquired resistance to trastuzumab and pertuzumab, primary resistance to pyrotinib); assay: In vivo efficacy of GQ01 with TKIs in human breast cancer PDX model resistant to trastuzumab, pertuzumab and pyrotinib (Example 3); set-up: species or system NCG mice; details: for TGI (%): day 42; for TGI (%) / Tumor volume (mm^3), Mean ± SEM: GQ01 3 mg/kg on day 0 and 5 mg/kg on day 21; for Tumor volume (mm^3), Mean ± SEM: end day (day 42)
Procedure: This model was derived from a patient with Stage III invasive breast cancer, who was assessed as acquired drug resistance to trastuzumab and pertuzumab and primary resistance to pyrotinib based on the history of treatments.
I. The tumor tissues of PDX model were extracted from the tumor-bearing mice and were transferred to culture medium, cut into small fragments, and then inoculated subcutaneously in the right flank of SPF female NCG mice aged 6~8 weeks.
as §1, with “II. 29 days after” for “II. 30 days after”, “formula V=0.5 a×b2 (wherein a” for “formula V=0.5 a×b^2 (wherein a”, “of mice in each group was measured” for “of mice was measured”

[3] = test system: human breast cancer HER2 IHC 3+ PDX model; assay: In vivo efficacy of GQ01 with TKIs in human breast cancer PDX model (Example 1); set-up: species or system NOD SCID mice; details: GQ01 5 mg/kg Q3W×2, combination 5 + 20 mg/kg; for TGI (%): day 77; for Tumor volume (mm^3), Mean ± SEM: end day (day 77)
Procedure: I. The tumor tissues of PDX model were extracted from the tumor-bearing mice and then transferred to culture medium, cut into small fragments, and inoculated subcutaneously at the right flank of SPF female NOD SCID mice aged 6~8 weeks.
II. The tumor diameter was measured with a caliper and the tumor volume was calculated according to the formula V=0.5 a×b^2 (wherein a is the long diameter of the tumor and b is the short diameter of the tumor). […] The tumor volume of mice in each group was measured twice a week.

[4] = test system: gastric cancer HER2 IHC 3+ PDX model; assay: In vivo efficacy of GQ01 with TKIs in human gastric cancer PDX model (Example 4); set-up: species or system Nu/Nu mice; details: for TGI (%): day 35; for TGI (%) / Tumor volume (mm^3), Mean ± SEM: GQ01 10 mg/kg single dose; for Tumor volume (mm^3), Mean ± SEM: end day (day 35); for PD (response status, share of animals): 6 mice per group, GQ01 10 mg/kg
Procedure: I. The tumor tissues of PDX model were extracted from the tumor-bearing mice and were transferred to RPMI-1640 culture medium, cut into small fragments, and then inoculated subcutaneously in the right flank of SPF female Nu/Nu mice aged 6~8 weeks.
as §1, with “II. 14 days after” for “II. 30 days after”, “formula V=0.5 a×b2 (wherein a” for “formula V=0.5 a×b^2 (wherein a”, “of mice in each group was measured” for “of mice was measured”
The response status were calculated based on the diameters or disappearance of target lesions.

[5] = tucatinib 50 mg/kg QD day 0-13, 28-41, combination 5 + 50 mg/kg
[6] = tucatinib 50 mg/kg QD day 0-13, 28-41, combination 5 + 50 mg/kg, listed as tucatinib
[7] = tucatinib 50 mg/kg QD day 0-13, 21-34, combination 3/5 + 50 mg/kg
[8] = tucatinib 50 mg/kg QD day 0-13, 21-34, combination 3/5 + 50 mg/kg, listed as tucatinib
[9] = tucatinib 20 mg/kg BID×2W+BID×2W
[10] = tucatinib 20 mg/kg BID×2W+BID×2W, listed as tucatinib
[11] = tucatinib 50 mg/kg QD 2 weeks, combination 10 + 50 mg/kg
[12] = tucatinib 50 mg/kg QD 2 weeks, combination 10 + 50 mg/kg, listed as tucatinib
[13] = pyrotinib 20 mg/kg QD day 0-13, 28-41, combination 5 + 20 mg/kg
[14] = pyrotinib 20 mg/kg QD day 0-13, 28-41, combination 5 + 20 mg/kg, listed as pyrotinib
[15] = pyrotinib 20 mg/kg QD day 0-13, 21-34, combination 3/5 + 20 mg/kg
[16] = pyrotinib 20 mg/kg QD day 0-13, 21-34, combination 3/5 + 20 mg/kg, listed as pyrotinib
[17] = pyrotinib 20 mg/kg QD×2W+QD×2W, listed as pyrotinib
[18] = pyrotinib 20 mg/kg QD 2 weeks, combination 10 + 20 mg/kg
[19] = pyrotinib 20 mg/kg QD 2 weeks, combination 10 + 20 mg/kg, listed as pyrotinib
[20] = neratinib 20 mg/kg QD×2W+QD×2W, listed as neratinib

## Cc1cc(Nc2ncnc3ccc(NC4=NC(C)(C)CO4)cc23)ccc1Oc1ccn2ncnc2c1 [Tucatinib, tucatinib]
[1]; [5]
  TGI (%): −1.09%
  Tumor volume (mm^3), Mean ± SEM: 732.33 ± 137.71 mm^3
[1]; [6]
  TGI (%): −1.09%
  Tumor volume (mm^3), Mean ± SEM: 732 mm^3
[2]; [7]
  TGI (%): −6.46%
  Tumor volume (mm^3), Mean ± SEM: 1557.77 ± 178.71 mm^3
[2]; [8]
  TGI (%): −6.46%
  Tumor volume (mm^3), Mean ± SEM: 1558 mm^3
[2]; tucatinib 50 mg/kg QD day 0-13, 21-34
  response of the model to treatment, in words: doesn't respond
[3]; [9]
  TGI (%): 51.08%
  Tumor volume (mm^3), Mean ± SEM: 879 ± 216 mm^3
[3]; [10]
  TGI (%): 51.08%
  Tumor volume (mm^3), Mean ± SEM: 879 mm^3
[4]; [11]
  TGI (%): 48.94%
  Tumor volume (mm^3), Mean ± SEM: 399.97 ± 43.87 mm^3
[4]; [12]
  TGI (%): 48.94%
  Tumor volume (mm^3), Mean ± SEM: 400 mm^3
[4]; tucatinib arm table, tucatinib 50 mg/kg
  PD (response status, share of animals): 100%

## CCOc1cc2ncc(C#N)c(Nc3ccc(OCc4ccccn4)c(Cl)c3)c2cc1NC(=O)/C=C/[C@H]1CCCN1C [Pyrotinib, pyrotinib]
[1]; [13]
  TGI (%): −2.65%
  Tumor volume (mm^3), Mean ± SEM: 740.71 ± 146.76 mm^3
[1]; [14]
  TGI (%): −2.65%
  Tumor volume (mm^3), Mean ± SEM: 741 mm^3
[2]; [15]
  TGI (%): 10.08%
  Tumor volume (mm^3), Mean ± SEM: 1333.21 ± 217.85 mm^3
[2]; [16]
  TGI (%): 10.08%
  Tumor volume (mm^3), Mean ± SEM: 1333 mm^3
[3]; pyrotinib 20 mg/kg QD×2W+QD×2W
  TGI (%): 34.93%
  Tumor volume (mm^3), Mean ± SEM: 1108 ± 202 mm^3
[3]; [17]
  TGI (%): 34.93%
  Tumor volume (mm^3), Mean ± SEM: 1108 mm^3
[4]; [18]
  TGI (%): 83.09%
  Tumor volume (mm^3), Mean ± SEM: 233.72 ± 39.7 mm^3
[4]; [19]
  TGI (%): 83.09%
  Tumor volume (mm^3), Mean ± SEM: 234 mm^3
[4]; pyrotinib arm table, pyrotinib 20 mg/kg, dash = no animal in this class
  PD (response status, share of animals): 83.33%

## CCOc1cc2ncc(C#N)c(Nc3ccc(OCc4ccccn4)c(Cl)c3)c2cc1NC(=O)/C=C/CN(C)C [Neratinib, neratinib]
[3]; neratinib 20 mg/kg QD×2W+QD×2W
  TGI (%): 61.80%
  Tumor volume (mm^3), Mean ± SEM: 724 ± 114 mm^3
[3]; [20]
  TGI (%): 61.80%
  Tumor volume (mm^3), Mean ± SEM: 724 mm^3
